This note sets out measurements from ChEMBL document CHEMBL4152191, “New potent and selective A1 adenosine receptor antagonists as potential tools for the treatment of gastrointestinal diseases” (Eur J Med Chem, 2018).

Calls of active or inactive are those of the source. No cut-off for these calls is given here.

In assay [1] the target is T1, Adenosine receptor A1 (Mus musculus) (UniProt Q60612).
T1 sequence (whole entry): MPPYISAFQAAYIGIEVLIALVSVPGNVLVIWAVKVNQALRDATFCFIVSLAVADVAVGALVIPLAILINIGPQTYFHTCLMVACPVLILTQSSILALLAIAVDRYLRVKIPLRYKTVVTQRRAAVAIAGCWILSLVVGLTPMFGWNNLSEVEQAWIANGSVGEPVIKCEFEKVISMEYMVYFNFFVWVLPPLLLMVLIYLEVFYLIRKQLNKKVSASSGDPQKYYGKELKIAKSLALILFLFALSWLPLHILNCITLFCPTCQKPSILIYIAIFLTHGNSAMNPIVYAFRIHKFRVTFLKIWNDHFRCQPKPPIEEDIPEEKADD
The assay can be described thus: Antagonist activity at adenosine A1 receptor in BALB/C mouse ileum assessed as reversal of 1 uM CCPA-induced reduction in rhythmic spontaneous contractions by measuring tissue response at 1 uM after 1 hr (reference value: 20%). In kind it is functional. Further details: scale not given: the % may be the effect or the level left.

Another assay addresses T2, Adenosine receptor A3 (Homo sapiens, UniProt P0DMS8).
T2 sequence (P0DMS8 whole entry): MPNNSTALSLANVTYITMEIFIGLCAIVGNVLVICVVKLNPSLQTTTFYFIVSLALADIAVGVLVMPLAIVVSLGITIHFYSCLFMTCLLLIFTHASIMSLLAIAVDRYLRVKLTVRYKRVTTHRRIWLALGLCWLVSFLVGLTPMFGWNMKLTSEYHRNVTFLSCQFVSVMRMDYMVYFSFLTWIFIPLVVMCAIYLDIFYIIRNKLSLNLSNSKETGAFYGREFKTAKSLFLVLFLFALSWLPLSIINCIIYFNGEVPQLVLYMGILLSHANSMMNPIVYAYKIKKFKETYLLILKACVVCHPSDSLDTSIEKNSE
The experiment in a line: Displacement of [3H]NECA from recombinant human adenosine A3 receptor transfected in CHO cell membranes after 3 hrs by microbeta scintillation counting analysis. A general note: In a radioligand displacement assay an active substance lowers the binding of a labelled ligand.

Assay [2] addresses T1, Adenosine receptor A1 (Mus musculus). The assay can be described thus: Activity at adenosine A1 receptor in BALB/C mouse ileum assessed as effect on frequency of rhythmic spontaneous contractions at 1 uM after 1 hr. Format: functional.
The target of assay [3] is T3, Adenosine receptor A1 (Homo sapiens, UniProt P30542).
T3 sequence (P30542 whole entry): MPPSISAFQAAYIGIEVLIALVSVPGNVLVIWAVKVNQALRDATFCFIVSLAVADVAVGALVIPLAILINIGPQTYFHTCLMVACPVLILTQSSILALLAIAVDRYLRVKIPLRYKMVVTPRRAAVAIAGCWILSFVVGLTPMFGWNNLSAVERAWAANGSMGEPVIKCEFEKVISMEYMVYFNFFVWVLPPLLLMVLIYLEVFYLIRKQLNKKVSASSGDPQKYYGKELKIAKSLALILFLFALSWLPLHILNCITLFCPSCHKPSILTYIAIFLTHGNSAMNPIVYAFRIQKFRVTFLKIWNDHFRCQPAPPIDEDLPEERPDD
The assay can be described thus: Antagonist activity at recombinant human adenosine A1 receptor transfected in CHO cells assessed as inhibition of CCPA-induced cAMP accumulation preincubated for 10 mins followed by CCPA addition by GloSensor cAMP assay. In kind it is functional, cell-based.

For assay [4], the target named is T1, Adenosine receptor A1 (Mus musculus). The experiment in a line: Activity at adenosine A1 receptor in BALB/C mouse ileum assessed as effect on amplitude of rhythmic spontaneous contractions at 1 uM after 1 hr. In kind it is functional.
A further assay addresses T4, Adenosine receptor A2b (Homo sapiens, UniProt P29275).
T4 sequence (P29275 whole entry): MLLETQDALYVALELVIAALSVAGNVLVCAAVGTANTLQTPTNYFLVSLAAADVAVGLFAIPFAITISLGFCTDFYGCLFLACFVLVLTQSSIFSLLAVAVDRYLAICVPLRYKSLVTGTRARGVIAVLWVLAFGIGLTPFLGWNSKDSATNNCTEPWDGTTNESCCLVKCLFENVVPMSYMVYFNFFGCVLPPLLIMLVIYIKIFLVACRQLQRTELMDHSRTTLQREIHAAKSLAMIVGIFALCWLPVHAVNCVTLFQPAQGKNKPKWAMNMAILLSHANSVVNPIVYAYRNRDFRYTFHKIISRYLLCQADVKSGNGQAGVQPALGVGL
The experiment in a line: Antagonist activity at recombinant human adenosine A2B receptor expressed in CHO cells assessed as inhibition of NECA-induced adenylyl cyclase activity after 20 mins by [alpha-32P]ATP assay. Format: functional, cell-based.

In a further assay the target is Adenosine receptor A2a (Homo sapiens, UniProt P29274). The experiment in a line: Displacement of [3H]NECA from recombinant human adenosine A2A receptor transfected in CHO cell membranes after 3 hrs by microbeta scintillation counting analysis.
In assay [5] the target is T3, Adenosine receptor A1. The assay can be described thus: Displacement of [3H]CCPA from recombinant human adenosine A1 receptor transfected in CHO cell membranes after 3 hrs by microbeta scintillation counting analysis.
The species entered for assay [6] is Homo sapiens. The experiment in a line: Selectivity index, ratio of Ki for recombinant human adenosine A2B receptor to Ki for recombinant human adenosine A1 receptor.
The target in assay [7] is T1, Adenosine receptor A1 (Mus musculus). The assay can be described thus: Antagonist activity at adenosine A1 receptor in BALB/C mouse ileum assessed as reversal of 0.1 uM CCPA-induced reduction in rhythmic spontaneous contractions by measuring tissue response at 1 uM after 1 hr (reference value: 65%). In kind it is functional. Further details: scale not given: the % may be the effect or the level left.

The species entered for assay [8] is Homo sapiens. The assay can be described thus: Selectivity index, ratio of Ki for recombinant human adenosine A2A receptor to Ki for recombinant human adenosine A1 receptor.
The target of assay [9] is T1, Adenosine receptor A1 (Mus musculus). The assay can be described thus: Antagonist activity at adenosine A1 receptor in BALB/C mouse ileum assessed as reversal of CCPA-induced reduction in rhythmic spontaneous contractions at 1 uM after 1 hr. Format: functional.
The target in assay [10] is Adenosine receptors; A1 & A3 (Homo sapiens) (UniProt P30542+P0DMS8). The assay can be described thus: Selectivity index, ratio of Ki for recombinant human adenosine A3 receptor to Ki for recombinant human adenosine A1 receptor.
In assay [11] the target is T1, Adenosine receptor A1 (Mus musculus). The experiment in a line: Reversible antagonist activity at adenosine A1 receptor in BALB/C mouse ileum assessed as reversal of CCPA-induced reduction in rhythmic spontaneous contractions at 1 uM incubated for 1 hr measured after compound wash out. Format: functional.

Sequence of Adenosine receptor A2a (P29274 whole entry): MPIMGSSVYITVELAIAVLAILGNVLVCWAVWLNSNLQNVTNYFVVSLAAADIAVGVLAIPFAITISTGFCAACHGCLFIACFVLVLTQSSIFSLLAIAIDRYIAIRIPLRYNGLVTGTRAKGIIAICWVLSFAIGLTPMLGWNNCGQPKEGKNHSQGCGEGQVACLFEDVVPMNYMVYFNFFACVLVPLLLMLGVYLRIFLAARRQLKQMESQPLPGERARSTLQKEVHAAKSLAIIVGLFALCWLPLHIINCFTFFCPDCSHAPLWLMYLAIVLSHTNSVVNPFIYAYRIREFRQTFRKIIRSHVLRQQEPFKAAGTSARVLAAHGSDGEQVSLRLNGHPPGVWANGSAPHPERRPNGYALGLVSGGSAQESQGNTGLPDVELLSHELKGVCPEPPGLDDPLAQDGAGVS

Consider `Cn1c(-c2ccccc2)nc2c(NC3CCCC3)ncnc21`, for which the figures for the Activity in [1] and in [7] were 75% and 100%, respectively. Also, the Ki (usually a measure of affinity in units of concentration, obtained from inhibition or displacement) was 846 nM at Adenosine receptor A3, 8510 nM on Adenosine receptor A2b, 498 nM at Adenosine receptor A2a and 2.8 nM at Adenosine receptor A1 [5]. Besides, the outcome in [2] and in assay [4] was inactive. Also, on Adenosine receptor A1 [3], the IC50 – broadly, the concentration that inhibits the measured activity by half – came out at 14 nM. Besides, the values for the Ratio Ki (in the assay listed under Homo sapiens [6]; in the assay listed under Homo sapiens [8]; in assay [10]) were 3040, 178 and 302, respectively. The Kb (usually the affinity of an antagonist, worked out from how it opposes an agonist) in [9] came out at 17 nM. Besides, the inhibition entry in assay [11] is “Active”.

With `Cn1c(-c2ccc(O)cc2)nc2c(NC3CCCC3)ncnc21`, the Ki amounted to 521 nM on Adenosine receptor A3, 17800 nM at Adenosine receptor A2b, 532 nM on Adenosine receptor A2a and 17 nM at Adenosine receptor A1 [5]. The outcome in assay [2] and in assay [4] was inactive. Moreover, the IC50 on Adenosine receptor A1 [3] stood at 52 nM. In addition, the Ratio Ki in the assay filed under Homo sapiens [6] came out at 1050; in the assay filed under Homo sapiens [8], 31; in assay [10], 31. Moreover, in assay [9], the Kb came to 66 nM.

With `Cn1c(-c2ccc(F)cc2)nc2c(NC3CCCC3)ncnc21`, the Ki on Adenosine receptor A3 is 1140 nM; at Adenosine receptor A2b, above 30000 nM; on Adenosine receptor A2a, 2400 nM; on Adenosine receptor A1 [5], 6.2 nM. Besides, the result in assay [2] and in assay [4] was inactive. Moreover, the IC50 at Adenosine receptor A1 [3] is 32 nM. Moreover, the figures for the Ratio Ki (in the assay listed under Homo sapiens [6]; in the assay listed under Homo sapiens [8]; in assay [10]) were above 4840, 387 and 184, respectively. Further, the antagonist equilibrium constant (Kb) in assay [9] worked out at 43 nM.

For the compound `Cc1cccc(-c2nc3c(NC4CCCC4)ncnc3n2C)c1`, the Ki on Adenosine receptor A3 is 510 nM; on Adenosine receptor A2b it was 6030 nM; at Adenosine receptor A2a it was 450 nM; at Adenosine receptor A1 [5] it was 6.2 nM. The outcome in [2] and in assay [4] was inactive. The IC50 at Adenosine receptor A1 [3] stood at 43 nM. The Ratio Ki is 973 in the assay filed under Homo sapiens [6], 73 in the assay filed under Homo sapiens [8] and 82 in assay [10]. In assay [9], the Kb was determined as 33 nM.

As to `Cc1ccc(-c2nc3c(NC4CCCC4)ncnc3n2C)cc1`, the Ki on Adenosine receptor A3 is 480 nM; on Adenosine receptor A2b it was above 30000 nM; on Adenosine receptor A2a, 1800 nM; on Adenosine receptor A1 [5] it was 8 nM. Besides, the outcome in assay [2] and in [4] was inactive. Moreover, the IC50 at Adenosine receptor A1 [3] worked out at 61 nM. The Ratio Ki was above 3750 in the assay filed under Homo sapiens [6], 225 in the assay filed under Homo sapiens [8] and 60 in [10]. Further, the Kb in [9] turned out to be 177 nM.
